Laboratory results: patent US20140329755A1, “COMBINATION THERAPY FOR THE TREATMENT OF ARRHYTHMIAS OR HEART FAILURE” (Gilead Sciences, Inc., priority 2013, published 2014)
pIC50: −log10 of the molar value. Read-outs that look alike come from different tables or passages of the source.

Experiments:
[1] = tested on: isolated rat right atria; assay: ATX-II-induced arrhythmias in spontaneously beating isolated rat right atria (arrhythmia score); conditions: for pIC50: isolated rat right atria, read-out: IC50, prevention of ATX-II induced arrhythmias and diastolic dysfunction
Description: (§1) Rats were anesthetized by intraperitoneal injection of 60 mg/kg ketamine and 8 mg/kg xylazine. The heart was rapidly removed and immersed in oxygenated Krebs-Henseleit buffer (in mmol/L: 118 NaCl, 4.8 KCl, 1.2 KH2PO4, 2.5 CaCl2, 1.2, MgSO4, 2 pyruvic acid, 5.5 glucose, 0.5 Na2EDTA, and 25 NaHCO3, pH 7.4). Rat right atria were quickly excised and suspended in a chamber of the Danish Myo Technologies (DMT) myograph containing 8 ml of oxygenated Krebs-Henseleit buffer. Mechanical and electrical changes were measured simultaneously in spontaneously beating atria. Isometric tension was recorded by a force transducer connected to a PowerLab data acquisition system (AD Instruments, Colorado Springs, Colo.). A bipolar electrode was attached to the surface of the atrium to record an electrogram. After stabilization, the atria were preincubated with a late INa inhibitor (0.1 μmol/L GS967 or 3 μmol/L ranolazine), a CaMKII inhibitor ((0.3 μmol/L AIP or 0.3 μmol/L KN-93) or their combination for 30 min, then treated with 50 nmol/L ATX-II to induce arrhythmias and diastolic dysfunction.
(§2) Isolated right atria beat spontaneously at a rate of 298+12 bpm. ATX-II induced premature beats, tachyarrhythmia and fibrillation in rat isolated right atria. Arrhythmias were recorded for 30 min following ATX-II treatment, and quantified using an arbitrary numerical grading of perceived severity as described previously (32) and shown in Table 1.

[2] = tested on: isolated rat right atria; assay: ATX-II-induced AF in isolated rat right atria; conditions: 3 μmol/L ranolazine, 100 nmol/L GS967, 300 nmol/L KN-93, 300 nmol/L AIP, alone or combined; FIG. 1
Description: as §1, §2

[3] = tested on: isolated rat right atria; assay: ATX-II-induced increase of diastolic tension in isolated rat right atria; conditions: 3 μM RAN, 0.1 μM GS-967, 0.3 μM KN-93, 0.3 μM AIP, alone or combined, 50 nmol/L ATX-II
Description: as §1

[4] = tested on: isolated ventricular myocytes and hearts; conditions: cited from earlier work
[5] = tested on: late INa; conditions: cited from earlier work
[6] = tested on: late INa; conditions: isolated hearts; read-out: IC50, ATX-II-induced late INa; cited from earlier work
[7] = tested on: isolated rat atrial myocytes; assay: ATX-II-induced diastolic Ca2+ increase in isolated rat atrial myocytes; assay type: cell-based; conditions: 100 nmol/L GS967, 300 nmol/L AIP, alone or combined; FIG. 3
Description: Adult male rats were anesthetized and hearts were rapidly removed and perfused in a retrograde mode (Langendorff preparation) with a modified Tyrode solution containing (in mmol/L): NaCl (135), KCl (4.6), MgCl2 (1.1), NaH2PO4 (1) glucose (10), HEPES (10), pH 7.4. Hearts were perfused for 5 min with a nominal Ca^2+-free Tyrode solution, then with a low Ca^2+ (2 µmol/L) solution containing 0.896 mg/ml collagenase type II (Worthington, USA) and 0.68 mg/ml bovine serum albumin (BSA) for 8-11 min at 37° C. […]
[Molecular Probes, USA], indo-1 AM [Molecular Probes] or 5 μmol/L Asante NaTRIUM Green 2 AM (Teflabs, USA) by incubation for 25 min at 23° C. in bath solution containing 1.0 mmol/L Ca^2+, and 2.5 μmol/L pluronic acid (Molecular Probes). Fluo-4 was excited at 488 nm, and the fluorescence was acquired at wavelengths >505 nm in the line scan mode or XY mode of the confocal system. Asante NaTRIUM Green 2 was excited at 543 nm, and fluorescence was acquired at wavelengths >560 nm in the XY scan mode. Intracellular calcium concentrations were monitored in electrically stimulated cells loaded with indo-1 AM using an IonOptix spectrophotometer (IonOptix, Milton, Mass.). […] Emitted fluorescence (405 nm and 485 nm) was detected by a photomultiplier tube. […] Fluorescent images were analyzed using ImageJ software (NIH) and Origin 8.1 (OriginLab, USA).

[8] = molecular target: peak INa (Homo sapiens, UniProt Q14524); conditions: cited from earlier work
peak INa, sequence (Q14524 whole entry): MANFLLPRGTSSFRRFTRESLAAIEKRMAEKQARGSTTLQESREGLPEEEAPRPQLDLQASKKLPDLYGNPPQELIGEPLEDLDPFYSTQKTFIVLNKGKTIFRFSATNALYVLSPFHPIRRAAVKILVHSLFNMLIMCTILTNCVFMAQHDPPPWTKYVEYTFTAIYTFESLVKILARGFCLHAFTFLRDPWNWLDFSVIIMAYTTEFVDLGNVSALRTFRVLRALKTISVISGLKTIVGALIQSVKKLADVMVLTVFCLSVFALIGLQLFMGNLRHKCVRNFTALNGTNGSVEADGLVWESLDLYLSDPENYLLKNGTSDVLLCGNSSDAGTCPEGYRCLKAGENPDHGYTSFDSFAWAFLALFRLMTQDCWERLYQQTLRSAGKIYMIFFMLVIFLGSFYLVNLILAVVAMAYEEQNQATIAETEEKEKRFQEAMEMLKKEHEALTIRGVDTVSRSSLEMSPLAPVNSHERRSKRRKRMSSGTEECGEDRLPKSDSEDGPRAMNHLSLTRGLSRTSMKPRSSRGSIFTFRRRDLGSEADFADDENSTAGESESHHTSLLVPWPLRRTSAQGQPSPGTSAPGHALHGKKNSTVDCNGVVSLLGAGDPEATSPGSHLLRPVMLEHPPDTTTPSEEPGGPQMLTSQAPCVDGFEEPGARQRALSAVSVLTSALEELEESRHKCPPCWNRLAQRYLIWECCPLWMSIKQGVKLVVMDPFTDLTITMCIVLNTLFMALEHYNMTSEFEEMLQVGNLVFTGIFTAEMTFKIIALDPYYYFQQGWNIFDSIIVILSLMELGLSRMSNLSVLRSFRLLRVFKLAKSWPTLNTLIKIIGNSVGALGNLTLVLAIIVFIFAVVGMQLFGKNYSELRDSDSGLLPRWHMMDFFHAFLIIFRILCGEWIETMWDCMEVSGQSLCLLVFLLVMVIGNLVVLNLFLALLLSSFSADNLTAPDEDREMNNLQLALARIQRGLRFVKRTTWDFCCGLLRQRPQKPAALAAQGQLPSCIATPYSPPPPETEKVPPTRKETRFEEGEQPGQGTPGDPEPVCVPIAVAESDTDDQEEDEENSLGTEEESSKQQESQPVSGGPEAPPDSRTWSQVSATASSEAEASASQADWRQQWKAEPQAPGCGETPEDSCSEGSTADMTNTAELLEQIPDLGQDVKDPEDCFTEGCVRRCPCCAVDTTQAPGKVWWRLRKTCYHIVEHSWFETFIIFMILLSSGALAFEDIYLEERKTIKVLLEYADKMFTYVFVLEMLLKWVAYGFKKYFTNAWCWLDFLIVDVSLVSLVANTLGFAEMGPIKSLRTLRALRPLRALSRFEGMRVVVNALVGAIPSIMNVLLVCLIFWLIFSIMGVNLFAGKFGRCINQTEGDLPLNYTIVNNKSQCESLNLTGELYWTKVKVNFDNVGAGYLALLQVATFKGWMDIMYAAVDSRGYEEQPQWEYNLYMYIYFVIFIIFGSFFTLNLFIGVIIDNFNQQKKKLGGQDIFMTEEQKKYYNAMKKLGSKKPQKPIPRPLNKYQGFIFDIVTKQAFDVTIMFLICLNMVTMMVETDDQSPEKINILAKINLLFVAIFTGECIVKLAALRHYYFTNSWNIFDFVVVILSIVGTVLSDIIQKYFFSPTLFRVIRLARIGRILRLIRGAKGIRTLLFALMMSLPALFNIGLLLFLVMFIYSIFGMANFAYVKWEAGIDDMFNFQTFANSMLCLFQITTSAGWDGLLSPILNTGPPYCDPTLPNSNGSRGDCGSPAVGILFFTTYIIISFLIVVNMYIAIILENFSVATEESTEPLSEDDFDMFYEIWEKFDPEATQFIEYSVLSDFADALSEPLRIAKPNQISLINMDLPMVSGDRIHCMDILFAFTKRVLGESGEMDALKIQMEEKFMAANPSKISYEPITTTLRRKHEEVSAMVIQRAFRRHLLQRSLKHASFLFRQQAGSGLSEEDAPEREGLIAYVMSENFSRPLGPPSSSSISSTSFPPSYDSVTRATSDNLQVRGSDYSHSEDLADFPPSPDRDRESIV

[9] = 3 μM RAN, 0.1 μM GS-967, 0.3 μM KN-93, 0.3 μM AIP, alone or combined, 30 min preincubation, then 50 nmol/L ATX-II
[10] = Rattus norvegicus, 3 μM RAN, 0.1 μM GS-967, 0.3 μM KN-93, 0.3 μM AIP, alone or combined, 30 min preincubation, then 50 nmol/L ATX-II, read-out: measured % Inhibition of ATX-II-induced arrhythmias
[11] = Rattus norvegicus, read-out: Measured % Inhibition of ATX-II-induced increase of diastolic tension

SMILES	measured % Inhibition of ATX-II-induced arrhythmias [1, 9]	measured % Inhibition of ATX-II-induced arrhythmias ([1]; 3 μM RAN, 0.1 μM GS-967, 0.3 μM KN-93, 0.3 μM AIP, alone or combined, 30 min preincubation, then 50 nmol/L ATX-II, listed as RAN)	pIC50 [1]	effect on ATX-II-induced AF [2]	Measured % Inhibition of ATX-II-induced increase of diastolic tension [3]	Measured % Inhibition of ATX-II-induced increase of diastolic tension ([3]; listed as RAN)	proarrhythmic effects (afterdepolarizations and torsades de pointes) of ATX-II and E-4031 [4]	inhibition at 0.1 µM [1, 10]	pIC50 ([5]; ventricular myocytes, read-out: IC50, ATX-II-induced late INa)	reduction of late INa and arrhythmias compared with flecainide or ranolazine ([5]; vs flecainide or ranolazine)	inhibition at 0.1 µM [3, 11]	pIC50 [6]	inhibition of the ATX-II-induced increase of diastolic Ca2+ [7]	Reduction of peak INa ([8]; holding potential of −120 mV)	Reduction of peak INa ([8]; holding potential −80 mV)	inhibition at 0.3 µM [1, 10]	effect on ATX-II induced arrhythmias and diastolic dysfunction ([1]; rat right atria)	inhibition at 0.3 µM [3, 11]
COc1ccccc1OCC(O)CN1CCN(CC(=O)Nc2c(C)cccc2C)CC1 (racemic) [ranolazine, (±)—N-(2,6-dimethylphenyl)-4-[2-hydroxy-3-(2-methoxyphenoxy)-propyl]-1-piperazineacetamide]	28%	23.8 ± 3.1%	4.83	failed to attenuate	10.4%	5.5 ± 1.5%												
FC(F)(F)Oc1ccc(-c2ccc3nnc(C(F)(F)F)n3c2)cc1 [GS-967, 6-[4-(trifluoromethoxy)phenyl]-3-(trifluoromethyl)[1,2,4]triazolo[4,3-a]pyridine]	34.2 ± 4.8%		5.89	failed to attenuate			prevented and reversed	34%	6.89	more potent and effective	9.1%	6.68	13%	minimal	increased			
COc1ccc(S(=O)(=O)N(CCO)c2ccccc2CN(C)C/C=C/c2ccc(Cl)cc2)cc1 [KN-93]	24.1 ± 7.6%			failed to attenuate												23%	prevented	8.4%
